In ChEMBL document CHEMBL3046098, “Effect of tropine derivatives, antimuscarinic agents, on the growth of Bombyx mori larvae” (1998):
Active and inactive are the calls of the source. The calls are words filed in the database; no cut-off is given here.

Assays:
Bombyx mori [1] = test: Insecticidal activity against Bombyx mori Shunrei x Shogetu fourth-instar larvae assessed as effect on larval growth at 100 ppm administered in diet relative to untreated control; assay type: functional, organism-based
Bombyx mori [2] = test: Effect on feeding in Bombyx mori Shunrei x Shogetu fourth-instar larvae assessed as change in quantity of excrement at 10 to 30 ppm administered in diet relative to untreated control; assay type: functional, organism-based
Bombyx mori [3] = test: Insecticidal activity against Bombyx mori Shunrei x Shogetu fourth-instar larvae assessed as incidence of prolongation of 4th ecdysis at 30 ppm administered in diet relative to untreated control; assay type: functional
Bombyx mori [4] = test: Insecticidal activity against Bombyx mori Shunrei x Shogetu fourth-instar larvae assessed as induction of delay in 4th ecdysis at 100 ug/larva applied daily through topical route (reference value: 4.3 +/- 0.48 days); assay type: functional
Bombyx mori [5] = test: Insecticidal activity against Bombyx mori Shunrei x Shogetu fourth-instar larva assessed as effect on larval molting at 160 ug/larvae upon topial application; assay type: functional, organism-based
Bombyx mori [6] = test: Insecticidal activity against Bombyx mori Shunrei x Shogetu fourth-instar larva assessed as effect on larval growth at 160 ug/larvae upon topial application; assay type: functional, organism-based
Bombyx mori [7] = test: Insecticidal activity against Bombyx mori Shunrei x Shogetu fourth-instar larvae assessed as induction of delay in 4th ecdysis at 10 to 30 ppm administered in diet relative to untreated control; assay type: functional

O=C(O)CC(c1ccccc1)c1ccccc1
Activity (Bombyx mori [1]): inactive

CN1C2CC[C@@H]1C[C@@H](OC(=O)C(C)(c1ccccc1)c1ccccc1)C2 (single isomer, unassigned)
Activity (Bombyx mori [2]): inactive | Activity (Bombyx mori [3]): 40% | Time (Bombyx mori [4]): 5.3 days | Activity (Bombyx mori [5]): inactive | Activity (Bombyx mori [6]): inactive

CN1C2CC[C@@H]1C[C@@H](OC(=O)C(C)(C)C)C2 (single isomer, unassigned)
Activity (Bombyx mori [5]): inactive | Activity (Bombyx mori [6]): inactive

CN1C2CC[C@@H]1C[C@@H](OC(=O)C(c1ccccc1)c1ccccc1)C2 (single isomer, unassigned)
Activity (Bombyx mori [5]): inactive | Activity (Bombyx mori [6]): inactive

CN1C2CC[C@@H]1C[C@@H](OC(=O)CC(c1ccccc1)c1ccccc1)C2 (single isomer, unassigned)
Activity (Bombyx mori [1]): inactive | Activity (Bombyx mori [5]): inactive | Activity (Bombyx mori [6]): inactive

CN1C2CC[C@@H]1C[C@@H](OC(=O)c1ccc(Cl)cc1Cl)C2 (single isomer, unassigned)
Activity (Bombyx mori [5]): inactive | Activity (Bombyx mori [6]): inactive

CN1C2CC[C@@H]1C[C@@H](OC(=O)c1ccc3ccccc3c1)C2 (single isomer, unassigned)
Activity (Bombyx mori [5]): inactive | Activity (Bombyx mori [6]): inactive

CN1[C@@H]2CC[C@H]1C[C@@H](OC(=O)C(CO)c1ccccc1)C2 (stereo not given in full) [ATROPINE]
Activity (Bombyx mori [2]): inactive | Time (Bombyx mori [7]): 1 days | Time (Bombyx mori [4]): 4.7 days
